Measurements: publication PMC4397963, “Phospho-Tyrosine(s) vs. Phosphatidylinositol Binding in Shc Mediated Integrin Signaling” (American journal of molecular biology, 2015)
“Also recorded” adds a separate entry of the source. Where no end group is shown, it is not given here. [ ]: non-standard residue; d: D form. pY = N[C@@H](Cc1ccc(OP(=O)(O)O)cc1)C(=O)O

T1: Shc PTB domain (17 – 207) (Homo sapiens, UniProt P29353)
T1 construct: The Shc PTB domain (17 – 207) containing the pET15b vector was transformed into a Rosetta (DE3) cell line; His-tag (N); made in house; host or cells: E. coli Rosetta (DE3), pET15b
T1 sequence (P29353 17-207 isoform P29353-2): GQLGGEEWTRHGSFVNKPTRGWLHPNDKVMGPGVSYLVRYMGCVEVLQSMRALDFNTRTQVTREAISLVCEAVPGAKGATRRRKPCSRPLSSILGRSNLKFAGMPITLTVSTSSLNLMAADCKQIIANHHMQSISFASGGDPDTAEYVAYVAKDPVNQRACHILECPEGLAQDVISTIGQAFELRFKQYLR

T2: Shc PTB domain (17 – 207) (UniProt P29353-2 17-207)
T2 construct: Shc adaptor protein (p52 isoform), PTB domain, residues 17-207, from a pET15b vector; numbers count on: the p52 isoform (full length 1-473); 15N-labelled (M9 medium with 15NH4Cl) for the NMR experiments; Monomeric on Superdex-75; also called apo PTB domain; source: E. coli Rosetta (DE3), purified (Ni-NTA, Superdex-75)
T2 sequence (looked up): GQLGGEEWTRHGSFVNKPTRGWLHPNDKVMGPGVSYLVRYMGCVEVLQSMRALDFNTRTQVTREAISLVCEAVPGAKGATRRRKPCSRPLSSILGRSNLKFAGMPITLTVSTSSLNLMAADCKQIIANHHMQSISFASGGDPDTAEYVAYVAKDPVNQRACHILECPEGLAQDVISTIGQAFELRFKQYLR

T3: full length Shc (1 – 473) (UniProt P29353-2 1-473)
T3 construct: Shc adaptor protein, full length 1-473 (printed length 473 residues, the p52 isoform), from a pET28a vector provided by Dr. Ladbury; numbers count on: the p52 isoform; Monomeric on Superdex-75; also called Shc full length; p52 Shc; source: E. coli BL21 (DE3), purified (Ni-NTA, Superdex-75)
T3 sequence (looked up): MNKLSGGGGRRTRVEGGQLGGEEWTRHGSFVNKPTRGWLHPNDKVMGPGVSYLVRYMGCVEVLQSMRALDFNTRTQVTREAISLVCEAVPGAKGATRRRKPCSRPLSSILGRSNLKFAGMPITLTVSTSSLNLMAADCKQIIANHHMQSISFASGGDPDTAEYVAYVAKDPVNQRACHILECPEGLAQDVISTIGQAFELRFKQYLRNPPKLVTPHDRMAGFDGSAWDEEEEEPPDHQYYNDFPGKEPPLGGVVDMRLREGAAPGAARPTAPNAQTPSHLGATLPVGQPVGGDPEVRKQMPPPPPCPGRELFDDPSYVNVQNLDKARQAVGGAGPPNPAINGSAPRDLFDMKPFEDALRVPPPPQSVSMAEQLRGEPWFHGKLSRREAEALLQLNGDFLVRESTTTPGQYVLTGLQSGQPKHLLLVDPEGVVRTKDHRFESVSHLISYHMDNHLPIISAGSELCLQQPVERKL


Assays:
[1] = target: T1, Shc PTB domain (17 – 207); assay: ITC binding to Shc PTB domain; conditions: for thermodynamic character of binding (heat sign, driving force) / Kd / ΔG / ΔH / −TΔS: ITC, 25°C; for Kd / ΔG / ΔH / −TΔS: PtdIns binding to PTB domain; for Kd: 50 mM Tris pH 7.5, 100 mM NaCl, 5 mM β-mercaptoethanol, "independent" model, dihexanoyl- or dioctonoyl- PtdIns, read-out: Kd; for ΔG / ΔH / −TΔS: pH 7.5
Procedure: The Shc PTB domain (17 – 207) containing the pET15b vector was transformed into a Rosetta (DE3) cell line to pursue optimal expression levels. SH2 domain (380 – 473) was cloned into NdeI and XhoI sites in pET21b vector and then transformed into a BL21 (DE3) cell line. The vector of pET28a-full length Shc (1 – 473), generously provided by Dr. Ladbury (University of Texas MD Anderson Cancer Center, TX), was expressed in a BL21 (DE3) cell line as well. Typically, 10 ml overnight culture was used to inoculate 1 liter LB broth. Cells were grown at 37°C until OD600 reached 0.6. At this point the culture was cooled to room temperature and then the overnight overexpression was induced by 1 mM isopropyl-β-D-thiogalactopyranoside. Harvested cells were kept at −20°C for future purification or resuspended in lysis buffer supplemented with protease inhibitors. Cells were further lysed by french press and the cell debris was removed by centrifugation at 18,000 rpm at 4°C. […] The overexpression of the target protein and the purified protein were confirmed by SDS-PAGE and the bands of the expected mass were observed. The determination of protein concentration by UV measurement was consistent with Bradford assay.
Calorimetric measurements of a full length Shc, PTB domain, and SH2 domain to β3 phosphopeptides or PtdIns were performed on a low volume Nano ITC (TA Instruments). All experiments were carried out in a buffer of 50 mM Tris, pH 7.5, 100 mM NaCl, 5 mM β-mercaptoethanol (unless described otherwise) at 12°C or 25°C with a stirring speed of 250 rpm to minimize the precipitation of the protein. 300 second time intervals were set between injections. The concentration of protein samples was determined by UV measurements. The titrants (β3 phosphopeptides or PtdIns) were prepared in the same buffer by the dilution of higher concentration stocks. The concentrations of the protein ranged from 30 μM to 150 μM. The concentration of protein was examined after each ITC experiment by UV to ensure the stability of proteins under the test condition. The analysis of the data was done with Nano Analyze Software (TA Instruments) suite using an “independent” model.

apo Shc PTB domain = assay: 15N-HSQC NMR titration of apo Shc PTB domain; format: binding; conditions: 15N-labelled apo PTB 100 – 200 μM, 50 mM Tris pH 7.5, 100 mM NaCl, 35°C; lipid to protein up to 15 to 1 (Ins(1,4,5)P3), 5 to 1 (PtdIns(4,5)P2)
Procedure: ^15N-labelled recombinant proteins were overexpressed in M9 medium supplemented with ^15NH4Cl as the sole nitrogen source. The same purification procedures as described above were followed. NMR samples of 100 – 200 μM were prepared in a buffer of 50 mM Tris, pH 7.5, 100 mM NaCl, 5 mM β-mercaptoethanol, 7% D2O, 1 mM 4,4-dimethyl-4-silapentane-1-sulfonic acid as the internal standard. ^15N-HSQC titration experiments were performed on a Varian/Agilent Inova 600 MHz spectrometer equipped with inverse-triple resonance cryo-probe at 35°C. All spectra were processed with NMRPipe and analyzed in CCPNmr Analysis software suite.
To find out the molecular details of these weak Shc-PtdIns interactions, we next employed NMR and performed ^15N-HSQC chemical shifts mapping experiments which are especially useful to define weak binding. […] Chemical shift perturbations, associated with the probes binding, were monitored. Overall, the observed shifts in Shc PTB resonance frequencies were small. However, they were concentration dependent, reproducible, and similar among the two PtdIns tested. […] The close-ups of 15N-HSQC spectra of PTB in the presence of PtdIns(4,5)P2, exemplifying the most shifted resonances, are shown in Figure 2. […] The first one, represented by the residues Q^148, S^149 and A^168, overlaps with the classical phosphotyrosine binding pocket of the protein-peptide binary complex. However, the canonical PTB fold cannot be formed without the stabilizing hydrophobic residue (pY-5) of the target peptide. Thus, in apo PTB domain Ins(1,4,5)P3 could only establish intermediate dynamic contacts with the amine functional groups of R^67 or Q^148 side chains. The second binding site, including the residues L^63, Q^76 and S^107, is formed at the interface of the second helix, the loop connecting the first beta strand with the second helix and the beginning of the second beta strand. This second PtdIns binding site is distinct from the second novel phosphotyrosine binding site we previously described for Shc PTB-bi-β3 complex, although it includes several overlapping residues. […]

apo PTB domain of Shc = conditions: unilamellar liposomes centrifugation assay; ref [15]; read-out: binding affinity, apo PTB domain; cited from earlier work
[2] = target: PTB domain complexed with TrkA peptide; conditions: roughly estimated; ref [15]; cited from earlier work
Shc PTB domain = conditions: ref [15]; cited from earlier work
Description: Since their discovery about two decades ago, PTB domains have been identified and structurally characterized within numerous multi-domain proteins. The ways they interact with their targets are strikingly versatile. The phosphorylated tyrosine is not always required for the high affinity interactions, and, in some cases, the binding motif might not even contain the tyrosine residue at all. PTB domains in general are also famous for the significant variance in their ligand binding affinities, ranging from 0.1 to 100 μM [17].

[3] = target: TrkA phosphopeptide (Homo sapiens) (UniProt P04629); assay: SPR; conditions: cited from earlier work
[4] = target: TrkA phosphopeptide (Homo sapiens) (UniProt P04629); assay: ITC; conditions: cited from earlier work
[5] = target: T2, Shc PTB domain (17 – 207); assay: ITC; Nano ITC; β3 phosphopeptide titrated into the Shc protein over-saturated by Ins(1,4,5)P3 at 3 to 1 lipid to protein ratio; 12°C; conditions: both partners purified
[6] = target: T3, full length Shc (1 – 473); assay: as above; conditions: both partners purified
[7] = target: T2, Shc PTB domain (17 – 207); assay: ITC; Nano ITC; β3 phosphopeptide titrated into the Shc protein (30-150 μM); 12°C; 50 mM Tris, pH 7.5, 100 mM NaCl, 5 mM β-mercaptoethanol; independent model; conditions: both partners purified
[8] = target: T2, Shc PTB domain (17 – 207); assay: ITC; Nano ITC; β3 phosphopeptide titrated into the Shc protein (30-150 μM); 25°C; 50 mM Tris, pH 7.5, 100 mM NaCl, 5 mM β-mercaptoethanol; independent model; conditions: both partners purified
[9] = target: T3, full length Shc (1 – 473); assay: as above; conditions: both partners purified
[10] = target: T2, Shc PTB domain (17 – 207); assay: ITC; Nano ITC; β3 phosphopeptide titrated into the Shc protein (30-150 μM); 12°C; 50 mM Tris, pH 7.5, 100 mM NaCl, 5 mM β-mercaptoethanol; independent model; conditions: both partners purified; remark: listed apart in the source
[11] = target: T3, full length Shc (1 – 473); assay: as above; conditions: both partners purified
[12] = target: T2, Shc PTB domain (17 – 207); assay: ITC; Nano ITC; β3 phosphopeptide titrated into the Shc protein (30-150 μM); 25°C; 50 mM Tris, pH 7.5, 100 mM NaCl, 5 mM β-mercaptoethanol; independent model; conditions: both partners purified; remark: listed apart in the source
[13] = target: T3, full length Shc (1 – 473); assay: as above; conditions: both partners purified; remark: listed apart in the source

Sequence of TrkA phosphopeptide (Homo sapiens) (P04629 33-796): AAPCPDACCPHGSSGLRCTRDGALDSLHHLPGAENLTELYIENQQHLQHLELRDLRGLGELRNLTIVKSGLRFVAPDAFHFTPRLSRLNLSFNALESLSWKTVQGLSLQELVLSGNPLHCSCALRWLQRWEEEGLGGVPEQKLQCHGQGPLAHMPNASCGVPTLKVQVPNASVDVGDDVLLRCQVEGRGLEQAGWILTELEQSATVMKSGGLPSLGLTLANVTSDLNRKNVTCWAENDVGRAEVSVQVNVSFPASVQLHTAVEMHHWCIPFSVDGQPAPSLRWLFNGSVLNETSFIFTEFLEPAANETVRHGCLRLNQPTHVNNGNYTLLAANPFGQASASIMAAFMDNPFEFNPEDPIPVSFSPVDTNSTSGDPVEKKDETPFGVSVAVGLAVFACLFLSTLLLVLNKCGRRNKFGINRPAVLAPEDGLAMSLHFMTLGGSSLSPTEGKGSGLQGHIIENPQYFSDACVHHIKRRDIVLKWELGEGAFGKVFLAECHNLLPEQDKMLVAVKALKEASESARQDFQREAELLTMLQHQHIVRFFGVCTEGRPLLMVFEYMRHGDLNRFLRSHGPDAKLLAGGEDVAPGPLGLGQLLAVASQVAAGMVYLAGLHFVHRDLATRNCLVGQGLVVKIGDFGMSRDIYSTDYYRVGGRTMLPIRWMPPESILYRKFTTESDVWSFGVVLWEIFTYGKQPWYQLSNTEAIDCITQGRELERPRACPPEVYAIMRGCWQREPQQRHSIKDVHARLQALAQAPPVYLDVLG

Molecule	thermodynamic character of binding (heat sign, driving force) ([1]; PTB domain)	Kd [1] [µM]	ΔG [1] [kcal/mol]	ΔH [1] [kcal/mol]	−TΔS [1] [kcal/mol]	15N-HSQC chemical shift perturbations (apo Shc PTB domain)	Kd (apo PTB domain of Shc) [µM]	Kd [2] [µM]	lipid specificity (Shc PTB domain)	other results
CCCCCCCCCCCCCCCC(=O)OC[C@H](COP(=O)(O)O[C@H]1[C@H](O)[C@@H](O)[C@H](OP(=O)(O)O)[C@@H](OP(=O)(O)O)[C@H]1O)OC(=O)CCCCCCCCCCCCCCC [PtdIns(4,5)P2, Phosphatidylinositol-4,5-diphosphate]	endothermic interactions at 25 °C that are driven predominantly by entropy	125	-5.323	0.464	-5.786	small; also recorded: more pronounced; also recorded: three major binding regions	140	~450	higher specificities	
Phosphatidylinositol-4-phosphate [PtdIns(4)P1]	endothermic interactions at 25 °C that are driven predominantly by entropy	95	-5.485	0.361	-5.846	small	52	~450	higher specificities	binding affinity relative to that reported before ([1]; PTB domain, ITC 25°C vs. centrifugation assay of ref 15): about two times weaker
Shc PTB (from UniProt P29353)										Kd [3]: 0.053 µM; Kd [4]: 0.19 µM
RAKWDTANNPL[pY]KEATSTFTNIT[pY]RGT (integrin β3 cytoplasmic tail, residues 736-762, both tyrosines phosphorylated; also called bi-phosphorylated β3 cytoplasmic tail peptide; source: synthetic peptide (NEO-Peptide)) [bi-β3: β3 integrin derived bi-phosphorylated (Y747 and Y759) peptide]										Kd [5]: 3.65 µM; dH [5]: -2.96 kcal/mol; Kd [6]: 4.38 µM; dH [6]: -3.32 kcal/mol; stoichiometry N [7]: 1 ± 0.15; stoichiometry N [8]: ~1; stoichiometry N [9]: 1 ± 0.15; Kd [10]: 4.32 µM; dH [10]: -2.75 kcal/mol; Kd [11]: 5.21 µM; dH [11]: -3.89 kcal/mol; Kd [12]: 5.14 µM; dH [12]: -5.49 kcal/mol; Kd [13]: 2.84 µM; dH [13]: -6.89 kcal/mol
